Tested on: human myeloma cell line MM.1S
Test: Biological pathway analysis of SILAC biomarker peptides against pathway database (broadinstitute gsea)
Experimental: Once biomarker peptides are identified for a specific drug by the SILAC method, the biomarker peptides may be compared to peptides/proteins in a biological pathway database in order to identify major biological pathways or functions implicated by the drug's action. A preferred pathway analysis website is at www dot broadinstitute dot org/gsea/index dot jsp.
This example describes the biological pathway analysis that was performed on each of Compound A, Compound B, and Tubastatin A.
Once biomarker peptides were identified for a specific drug (either Compound A, Compound B, or Tubastatin A) by the SILAC method in Example 1, the biomarker peptides were compared to peptides/proteins in the biological pathway database at www dot broadinstitute dot org/gsea/index dot jsp in order to identify major biological pathways or functions implicated by the drug's action.

CN1CCc2c(c3ccccc3n2Cc2ccc(C(=O)NO)cc2)C1 [Tubastatin A, reference compound]
Observed: number of genes in pathway REACTOME_PACKAGING_OF_TELOMERE_ENDS (Pathway_size 48): 26 | Ratio observed/pathway size, REACTOME_PACKAGING_OF_TELOMERE_ENDS (Pathway_size 48): 0.5417 | Observed: number of genes in pathway REACTOME_RNA_POL_I_PROMOTER_OPENING (Pathway_size 61): 40 | Ratio observed/pathway size, REACTOME_RNA_POL_I_PROMOTER_OPENING (Pathway_size 61): 0.6557 | Observed: number of genes in pathway REACTOME_DEPOSITION_OF_NEW_CENPA_CONTAINING_NUCLEOSOMES_AT_THE_CENTROMERE (Pathway_size 64): 27 | Ratio observed/pathway size, REACTOME_DEPOSITION_OF_NEW_CENPA_CONTAINING_NUCLEOSOMES_AT_THE_CENTROMERE (Pathway_size 64): 0.4219 | Observed: number of genes in pathway GCM_TPT1 (Pathway_size 70): 28 | Ratio observed/pathway size, GCM_TPT1 (Pathway_size 70): 0.4 | Observed: number of genes in pathway REACTOME_MEIOTIC_SYNAPSIS (Pathway_size 71): 27 | Ratio observed/pathway size, REACTOME_MEIOTIC_SYNAPSIS (Pathway_size 71): 0.3803 | Observed: number of genes in pathway REACTOME_TELOMERE_MAINTENANCE (Pathway_size 75): 26 | Ratio observed/pathway size, REACTOME_TELOMERE_MAINTENANCE (Pathway_size 75): 0.3467 | Observed: number of genes in pathway STRUCTURAL_CONSTITUENT_OF_RIBOSOME (Pathway_size 80): 28 | Ratio observed/pathway size, STRUCTURAL_CONSTITUENT_OF_RIBOSOME (Pathway_size 80): 0.35 | Observed: number of genes in pathway MIPS_RIBOSOME_CYTOPLASMIC (Pathway_size 81): 32 | Observed: number of genes in pathway REACTOME_AMYLOIDS (Pathway_size 81): 40 | Ratio observed/pathway size, MIPS_RIBOSOME_CYTOPLASMIC (Pathway_size 81): 0.3951 | Ratio observed/pathway size, REACTOME_AMYLOIDS (Pathway_size 81): 0.4938 | Observed: number of genes in pathway REACTOME_MEIOTIC_RECOMBINATION (Pathway_size 84): 41 | Ratio observed/pathway size, REACTOME_MEIOTIC_RECOMBINATION (Pathway_size 84): 0.4881 | Observed: number of genes in pathway REACTOME_RNA_POL_I_TRANSCRIPTION (Pathway_size 86): 40 | Ratio observed/pathway size, REACTOME_RNA_POL_I_TRANSCRIPTION (Pathway_size 86): 0.4651 | Observed: number of genes in pathway KEGG_RIBOSOME (Pathway_size 88): 33 | Ratio observed/pathway size, KEGG_RIBOSOME (Pathway_size 88): 0.375 | Observed: number of genes in pathway MORF_TPT1 (Pathway_size 102): 32 | Ratio observed/pathway size, MORF_TPT1 (Pathway_size 102): 0.3137 | Observed: number of genes in pathway MIPS_NOP56P_ASSOCIATED_PRE_RRNA_COMPLEX (Pathway_size 104): 33 | Ratio observed/pathway size, MIPS_NOP56P_ASSOCIATED_PRE_RRNA_COMPLEX (Pathway_size 104): 0.3173 | Observed: number of genes in pathway REACTOME_MEIOSIS (Pathway_size 112): 42 | Ratio observed/pathway size, REACTOME_MEIOSIS (Pathway_size 112): 0.375 | Observed: number of genes in pathway GCM_NPM1 (Pathway_size 116): 36 | Ratio observed/pathway size, GCM_NPM1 (Pathway_size 116): 0.3103 | Observed: number of genes in pathway GNF2_DAP3 (Pathway_size 119): 30 | Observed: number of genes in pathway REACTOME_RNA_POL_I_RNA_POL_III_AND_MITOCHONDRIAL_TRANSCRIPTION (Pathway_size 119): 40 | Ratio observed/pathway size, GNF2_DAP3 (Pathway_size 119): 0.2521 | Ratio observed/pathway size, REACTOME_RNA_POL_I_RNA_POL_III_AND_MITOCHONDRIAL_TRANSCRIPTION (Pathway_size 119): 0.3361 | Observed: number of genes in pathway GNF2_EIF3S6 (Pathway_size 121): 33 | Ratio observed/pathway size, GNF2_EIF3S6 (Pathway_size 121): 0.2727 | Observed: number of genes in pathway GCM_ACTG1 (Pathway_size 124): 34 | Ratio observed/pathway size, GCM_ACTG1 (Pathway_size 124): 0.2742 | Observed: number of genes in pathway MORF_ACTG1 (Pathway_size 138): 39 | Ratio observed/pathway size, MORF_ACTG1 (Pathway_size 138): 0.2826 | Observed: number of genes in pathway KEGG_SYSTEMIC_LUPUS_ERYTHEMATOSUS (Pathway_size 139): 47 | Ratio observed/pathway size, KEGG_SYSTEMIC_LUPUS_ERYTHEMATOSUS (Pathway_size 139): 0.3381 | Observed: number of genes in pathway REACTOME_PEPTIDE_CHAIN_ELONGATION (Pathway_size 145): 32 | Ratio observed/pathway size, REACTOME_PEPTIDE_CHAIN_ELONGATION (Pathway_size 145): 0.2207 | Observed: number of genes in pathway MORF_NME2 (Pathway_size 154): 39 | Ratio observed/pathway size, MORF_NME2 (Pathway_size 154): 0.2532 | Observed: number of genes in pathway REACTOME_INFLUENZA_VIRAL_RNA_TRANSCRIPTION_AND_REPLICATION (Pathway_size 161): 33 | Ratio observed/pathway size, REACTOME_INFLUENZA_VIRAL_RNA_TRANSCRIPTION_AND_REPLICATION (Pathway_size 161): 0.205 | Observed: number of genes in pathway MORF_NPM1 (Pathway_size 162): 43 | Ratio observed/pathway size, MORF_NPM1 (Pathway_size 162): 0.2654 | Observed: number of genes in pathway REACTOME_3_UTR_MEDIATED_TRANSLATIONAL_REGULATION (Pathway_size 166): 32 | Ratio observed/pathway size, REACTOME_3_UTR_MEDIATED_TRANSLATIONAL_REGULATION (Pathway_size 166): 0.1928 | Observed: number of genes in pathway REACTOME_NONSENSE_MEDIATED_DECAY_ENHANCED_BY_THE_EXON_JUNCTION_COMPLEX (Pathway_size 167): 32 | Ratio observed/pathway size, REACTOME_NONSENSE_MEDIATED_DECAY_ENHANCED_BY_THE_EXON_JUNCTION_COMPLEX (Pathway_size 167): 0.1916 | Observed: number of genes in pathway REACTOME_SRP_DEPENDENT_COTRANSLATIONAL_PROTEIN_TARGETING_TO_MEMBRANE (Pathway_size 170): 39 | Ratio observed/pathway size, REACTOME_SRP_DEPENDENT_COTRANSLATIONAL_PROTEIN_TARGETING_TO_MEMBRANE (Pathway_size 170): 0.2294 | Observed: number of genes in pathway REACTOME_INFLUENZA_LIFE_CYCLE (Pathway_size 195): 37 | Ratio observed/pathway size, REACTOME_INFLUENZA_LIFE_CYCLE (Pathway_size 195): 0.1897 | Observed: number of genes in pathway MORF_ANP32B (Pathway_size 197): 38 | Ratio observed/pathway size, MORF_ANP32B (Pathway_size 197): 0.1929 | Observed: number of genes in pathway REACTOME_TRANSCRIPTION (Pathway_size 207): 45 | Ratio observed/pathway size, REACTOME_TRANSCRIPTION (Pathway_size 207): 0.2174 | Observed: number of genes in pathway REACTOME_TRANSLATION (Pathway_size 211): 39 | Ratio observed/pathway size, REACTOME_TRANSLATION (Pathway_size 211): 0.1848 | Observed: number of genes in pathway MORF_UBE2I (Pathway_size 238): 43 | Ratio observed/pathway size, MORF_UBE2I (Pathway_size 238): 0.1807 | Observed: number of genes in pathway MODULE_32 (Pathway_size 241): 36 | Ratio observed/pathway size, MODULE_32 (Pathway_size 241): 0.1494 | Observed: number of genes in pathway MORF_HDAC1 (Pathway_size 254): 37 | Ratio observed/pathway size, MORF_HDAC1 (Pathway_size 254): 0.1457 | Observed: number of genes in pathway MORF_DEK (Pathway_size 262): 39 | Ratio observed/pathway size, MORF_DEK (Pathway_size 262): 0.1489 | Observed: number of genes in pathway MORF_RAN (Pathway_size 268): 46 | Ratio observed/pathway size, MORF_RAN (Pathway_size 268): 0.1716 | Observed: number of genes in pathway MODULE_151 (Pathway_size 318): 49 | Ratio observed/pathway size, MODULE_151 (Pathway_size 318): 0.1541 | Observed: number of genes in pathway MODULE_83 (Pathway_size 320): 50 | Ratio observed/pathway size, MODULE_83 (Pathway_size 320): 0.1562 | Observed: number of genes in pathway MODULE_114 (Pathway_size 338): 49 | Ratio observed/pathway size, MODULE_114 (Pathway_size 338): 0.145 | Observed: number of genes in pathway HSIAO_HOUSEKEEPING_GENES (Pathway_size 389): 68 | Ratio observed/pathway size, HSIAO_HOUSEKEEPING_GENES (Pathway_size 389): 0.1748 | Observed: number of genes in pathway MOOTHA_HUMAN_MITODB_6_2002 (Pathway_size 429): 46 | Ratio observed/pathway size, MOOTHA_HUMAN_MITODB_6_2002 (Pathway_size 429): 0.1072 | Observed: number of genes in pathway REACTOME_METABOLISM_OF_PROTEINS (Pathway_size 496): 56 | Ratio observed/pathway size, REACTOME_METABOLISM_OF_PROTEINS (Pathway_size 496): 0.1129 | Observed: number of genes in pathway MARTENS_TRETINOIN_RESPONSE_DN (Pathway_size 841): 63 | Ratio observed/pathway size, MARTENS_TRETINOIN_RESPONSE_DN (Pathway_size 841): 0.07491 | Observed: number of genes in pathway GRADE_COLON_CANCER_UP (Pathway_size 870): 62 | Ratio observed/pathway size, GRADE_COLON_CANCER_UP (Pathway_size 870): 0.07126 | Observed: number of genes in pathway DANG_BOUND_BY_MYC (Pathway_size 1102): 68 | Ratio observed/pathway size, DANG_BOUND_BY_MYC (Pathway_size 1102): 0.06171 | Observed: number of genes in pathway CYTOPLASMIC_PART (Pathway_size 1383): 67 | Ratio observed/pathway size, CYTOPLASMIC_PART (Pathway_size 1383): 0.04845 | Observed: number of genes in pathway PUJANA_BRCA1_PCC_NETWORK (Pathway_size 1651): 84 | Ratio observed/pathway size, PUJANA_BRCA1_PCC_NETWORK (Pathway_size 1651): 0.05088 | Observed: number of genes in pathway CYTOPLASM (Pathway_size 2130): 83 | Ratio observed/pathway size, CYTOPLASM (Pathway_size 2130): 0.03897
